Experimental data reported in patent publication US20020169123A1, “Regulating apoptosis in TRAIL-resistant cancer cells, while protecting normal, non-cancerous cells” (THE TRUSTEES OF THE UNIVERSITY OF PENNSYLVANIA, priority 2001, published 2002).

Columns and labels:
[1] = tested on: TRAIL-resistant HCE4 cell line; assay: time course western blot of caspase activation and PARP cleavage; assay type: cell-based, human; details: only in CHX-pretreated HCE4 cells; 6 hours CHX pre-incubation
Procedure: (§1) Western blot analysis was carried out as previously described (Meng et al., Clin. Cancer Res. 4:251-259 (1998)). Blotted membranes were immunostained with anti-DR4 (1:500; Pharmingen), anti-DR5 (1:500; IMGENEX, San Diego, Calif.), anti-DcR1 (1:500; Pharmingen), anti-DcR2 (1:500; Pharmingen), anti-FADD (Clone IF7, 1:2000; Upstate Biotechnology, Lake Placid, N.Y.), anti-caspase 8 (Clone 5F7, 1:1000; Upstate Biotechnology), anti-FLIP (Clone Dave-2, 1:1000; Alexis Biochemicals, San Diego, Calif.), anti-Bid (1:500; Pharmingen), anti-Bax (1:500, Pharmingen), anti Bcl-2 (Bcl-2/100, 1:500; Pharmingen), anti-Bcl-xL (1:500; Pharmingen), anti-caspase 3 (E-8, 1:200; Santa Cruz, Santa Cruz, Calif.), anti-PARP (1:2000; Roche Diagnostics GmbH, Mannheim, Germany), anti-TRAIL (1:500; PeproTech Inc., Rocky Hill, N.J.), or anti-actin (I-19, 1:200; Santa Cruz).
A time course experiment was performed using the TRAIL-resistant HCE4 cell line. After 6 hours of pre-incubation in the presence or absence of CHX, the cells were exposed to TRAIL, then lysates were prepared and harvested at time points every 30 minutes after the addition of TRAIL, up to 4 hrs by adding 1× SDS loading buffer. The timed lysates were subjected to 10 or 12% SDS-PAGE, and then immunoblotted and stained with the indicated antibodies (FIG. 3). […]

HCE4 cells = assay: DISC IP analysis, recruitment of caspase 8 into DISC; assay type: cell-based, human; details: CHX-pre-treated vs control
Procedure: (§2) To perform the DISC analysis, cells were grown, harvested and re-suspended in 2 mL of DMEM (1.5×10^7 cells/mL). TRAIL (500 ng/mL final concentration) and anti-6× His antibody (2.5 μg/mL final concentration) were pre-mixed for 10 minutes on ice, then added to the re-suspended cells. The cells were treated with TRAIL for 20 minutes in a 37° C. water bath with intermittent agitation. TRAIL treatment was stopped by adding 5 mL of ice-cold PBS, followed by immediate centrifugation. […]
(§3) To the cleared lysate, 30 μL of protein A/G plus agarose beads (Santa Cruz) were added and incubated overnight in a cold room with continuous rocking. […] After centrifugation at the same condition, the precipitates were re-suspended in 1× SDS loading buffer and analyzed by 12% SDS-PAGE and western immunostaining.
(§4) In the control used to verify the DISC without TRAIL stimulation, the same amounts of TRAIL and antibody were added to the lysate after the cells were lysed with IP lysis buffer. Equal amounts of total cell lysates were also analyzed as an expression control. […]
(§5) FIGS. 3A and 3B depict an immunostained western blot showing the sensitization of TRAIL-resistant HCE4 cells to TRAIL resulting from CHX pre-treatment. […] Actin levels were measured as a control standard.

TE9 cells = assay: as above; assay type: cell-based, human; details: CHX-pre-treated vs control
Procedure: as §2, §3, §4, §5

[2] = tested on: esophageal cancer cell lines; assay: active-caspase 3 assay, TRAIL cytotoxicity on esophageal cancer cell lines; assay type: cell-based, human
Procedure: To assess TRAIL cytotoxicity on esophageal cancer cells, the active-caspase 3 assay was used. […] After 16 hours of the TRAIL treatment, the cells were harvested and the active-caspase 3 assay was performed as described in the Experimental Procedures above. In the case of CHX treatment, the cells were pre-treated with CHX (10 μg/mL final concentration) for 6 hours before the addition of TRAIL.
The protein synthesis inhibitor, cycloheximide (“CHX”), has been widely used with apoptosis-inducing ligands, such as FAS/FASL, TNF-α, or TRAIL, to induce cell death effectively. […] This is because previous observers have reported that over-expression of c-FLIP can interrupt the recruitment of caspase 8 into DISC, thereby preventing down stream activation of the caspase cascade (Wajant et al., J. Biol. Chem. 275:24357-24366 (2000)). It has also been reported that CHX might sensitize the cells to TRAIL by inhibiting a de novo synthesis of c-FLIP, thereby increasing the recruitment of caspase 8 into DISC (Fulda et al., Cancer Res. 60:3947-3956 (2000)), followed by activation of downstream apoptotic signaling cascade.

HCE4, TE3 and TE5 cells [3] = assay: mitochondrial transmembrane potential change, DiOC6 flow cytometry; assay type: cell-based, human; details: 0.5 μM adriamycin 16 hours; 100 nM DiOC6
Procedure: To detect any change of Δψm after treating cells with adriamycin, 3,3′-dihexyloxacarbocyanine iodide (DiOC6 (Pan et al., 1997)) were used. Briefly, 5×10^5 cells/well were seeded into a 6 well plate. After treatment with adriamycin, the cells were harvested, washed and re-suspended in complete media containing 100 nM DiOC6 (Pan et al., 1997) followed by 30 minutes incubation in a 37° C. water bath.
In addition to determine the potential mitochondrial membrane (Δψm) change after 16 hours of adriamycin (0.5 μM) pretreatment, the HCE4, TE3 and TE5 cells were incubated in the presence of 100 nM DiOC6 (Pan et al., 1997).

[4] = tested on: EPC2 normal esophageal epithelial cells; details: EPC2 cells
Procedure: Normal human primary epithelial cells (EPC2, provided by Dr. Anil Rustgi, University of Pennsylvania) and primary human foreskin keratinocytes (HFK, provided by Dr. John C. Ansel, Emory University), were grown in Keratinocyte-SFM medium (Gibco BRL, Rockville, Md.) containing bovine pituitary extract (40 μg/mL) and epidermal growth factor (1 ng/mL). The primary epithelial cells were used at passage 4 or 5.
The N-terminal histidine (His) tagged recombinant human TRAIL (rhTRAIL, Thr-95 to Gly-281) was obtained from R&D Systems (Minneapolis, Minn.). A mouse monoclonal anti-6× His antibody (R&D Systems) was used for cross-linking the rhTRAIL. […] Cells were treated with TRAIL (50 ng/mL final concentration) and 1 μg/mL of anti-6× His (N-terrninal histidine antibody) for 4 hours or for 16 hours. The caspase inhibitor was used at a final concentration of 20 μM, and was added 2 hours prior to the addition of TRAIL. […] In the case of adriamycin, cells were pre-treated with adriamycin (0.5 μM final concentration) for 16 hours before the addition of TRAIL.
(§6) For detecting apoptosis mediated by TRAIL, an active-caspase 3 assay was performed using Cytofix/Cytoperm kit (Pharmingen, San Diego, Calif.), as previously described (Kim et al., Int. J. Oncol. 18:241-247 (2001)). Briefly, using standard techniques, 5×10^5 cells were seeded into a 6 well plate, after which, the cells were treated with TRAIL cross-linked with anti-6× His antibody. […] After washing, the cells were probed with 0.125 μg/μl of Phycoerythrin (PE)-conjugated goat anti-rabbit secondary antibody (Ab) (CALTAG Laboratories, Burlingame, Calif.) for 20 minutes in the dark. The intensity of PE was analyzed by flow cytometry using a Beckman-Coulter Epics Elite analyzer.

EPC2 = assay: mitochondrial transmembrane potential change; assay type: cell-based, human; details: data not shown
HCE4, TE3 and TE5 cells [5] = assay: Bax translocation, cell fractionation and western blot; assay type: cell-based, human; details: cytoplasmic and heavy membrane fractions, western blot
Procedure: as §1
To prepare cytoplasmic fraction and mitochondria-rich heavy membrane fraction, cells were harvested, washed, and then re-suspended in RSB100 (10 mM Tris-HCl, pH 7.4, 2.5 mM MgCl2, 100 mM NaCl) containing 35 μg/mL digitonin (Calbiochem, San Diego, Calif.), and 1× complete protease inhibitor cocktail (Roche Diagnostics). After incubation on ice for 5 minutes, the cells were disrupted by passage through a 25G needle. […] Protein quantity was measured using Bio-Rad protein assay reagent (Bio-Rad, Hercules, Calif.). […]

[6] = tested on: TRAIL-resistant HCE4, TE3, and TE5 cells; assay: active-caspase 3 assay, adriamycin plus TRAIL; assay type: cell-based, human; details: HCE4, TE3, TE5; 0.5 μM adriamycin 16 hours, then TRAIL 4 hours; no inhibitor
Procedure: Cells were treated with TRAIL (50 ng/mL final concentration) and 1 μg/mL of anti-6× His (N-terrninal histidine antibody) for 4 hours or for 16 hours. The caspase inhibitor was used at a final concentration of 20 μM, and was added 2 hours prior to the addition of TRAIL. When the cells were treated with both cycloheximide (CHX) and TRAIL, CHX (10 μg/mL final concentration) was added 6 hours before the addition of TRAIL. In the case of adriamycin, cells were pre-treated with adriamycin (0.5 μM final concentration) for 16 hours before the addition of TRAIL.
as §6
Accordingly, adriamycin was tested to determine whether its combination with TRAIL could induce synergistic cell killing in TRAIL-resistant esophageal cancer cells. TRAIL-resistant HCE4, TE3, and TE5 cells were pre-treated with 0.5 μM adriamycin for 16 hours, followed by incubation for 4 hours in the presence of TRAIL. z-LEHD-FMK (20 μM final concentration) was added 2 hours before the addition of TRAIL. An active-caspase 3 assay was used to determine whether apoptosis occurred.
Next, z-LEHD-FMK was tested in the HCE4, TE3 and TE5 cells to determine the protective effect of z-LEHD-FMK, if any, on the synergistic cell death driven by the combination of adriamycin with TRAIL.

HFK cells = assay: active-caspase 3 assay on foreskin keratinocytes; assay type: cell-based, human; details: increasing concentrations of TRAIL, 4 hours
Description: Experiments were done in duplicate (mean value±SD).

[7] = tested on: all cells, including cancer cells; assay: protection from the killing effect of TRAIL by caspase inhibitors; assay type: cell-based; details: stated without experimental detail
[8] = tested on: TRAIL-sensitive SW480 colon cancer cells; assay: apoptosis-inducing activity of adenovirus-expressed TRAIL; assay type: cell-based, human; details: z-VAD-FMK 20 μM added 1 hour after onset of virus infection
Description: To make an adenovirus expressing extra-cellular portion of TRAIL (amino acids (Aa) 95 to 281), pAdTRACK/CMV and pAdEasy systems were used as previously described (He et al., Proc. Natl. Acad. Sci. USA 95:2509-2514 (1998)). In short, the extra-cellular portion of TRAIL was amplified by PCR (polymerase chain reaction). The amplified fragment was fused directly to the signal peptide of a mouse Ig κ chain, which is secreted into the media from the cells. Then, an isoleucine zipper (ILZ) fragment was inserted between the signal peptide and TRAIL to induce self-trimerization (Harbury et al., Science 262:1401-1407 (1993)). The final resulting construct was cloned into pAdTRACK/CMV, and then a recombinant plasmid was generated in BJ5183 E. coli by co-transforming PmeI-digested TRAIL-cloned pAdTRACK/CMV and pAdEASY.
The recombinant plasmid was digested with PacI, and was used for transfection into […] 293 cells using Superfect (QIAGEN, Valencia, Calif.). Approximately five (5) days after transfection, when comet-like patches of the green cells appeared, the cells were harvested. The viruses were amplified and purified as previously described (El-Deiry et al., Cell 75:817-825 (1993)). The infectivity of the viruses was checked by the observation of green fluorescence using a fluorescence microscope. […]

C[C@@H]1C[C@@H]([C@H](O)CC2CC(=O)NC(=O)C2)C(=O)[C@@H](C)C1 [CHX, cycloheximide]
onset of activation of caspase 8, Bid, caspase 9 and cleavage of PARP after TRAIL treatment [1]: approximately 1 hour | amount of caspase 8 in the DISC after CHX pre-treatment (HCE4 cells): slight decrease | amount of caspase 8 recruited into DISC after CHX pre-treatment (TE9 cells): no increase | sensitization to TRAIL by CHX pre-treatment ([2]; all cancer cell lines, CHX 10 μg/mL for 6 hours before TRAIL): became sensitized to TRAIL

COc1cccc2c1C(=O)c1c(O)c3c(c(O)c1C2=O)C[C@@](O)(C(=O)CO)C[C@@H]3O[C@H]1C[C@H](N)[C@H](O)[C@H](C)O1 [adriamycin, doxorubicin]
drop of Δψm after adriamycin treatment (HCE4, TE3 and TE5 cells [3]): a drop of Δψm was observed only in the HCE4 cells | cell killing by combination of TRAIL and adriamycin ([4]; no inhibitor): synergistically killed | drop of Δψm after adriamycin (EPC2): did not induce drop of Δψm | Bax translocation from the cytosol to the mitochondria after adriamycin treatment (HCE4, TE3 and TE5 cells [5]): only in the HCE4 cells | cell killing by combination of adriamycin and TRAIL [6]: the effect was synergistic

TRAIL: N-terminal histidine tagged recombinant human TRAIL (Thr-95 to Gly-281) from R&D Systems, cross-linked with anti-6x His antibody
TRAIL cytotoxicity (active-caspase 3) ([4]; TRAIL 5, 10, 25 or 50 ng/mL, 4 hours): showed cytotoxicity in a dose dependent manner | TRAIL sensitivity (more than 30% of the cells active-caspase 3 positive) ([2]; TE2, TE9 and TE12 cell lines, TRAIL cross-linked with anti-6x His antibody, 16 hours): sensitive to TRAIL | TRAIL cytotoxicity (active-caspase 3) (HFK cells): not affected

z-VAD-FMK
protection from the killing effect of TRAIL [7]: protect all cells, including cancer cells, from the killing effect of TRAIL | cleavage of caspase 3 and PARP in Ad-ILZ-TR infected cells with inhibitor [8]: no cleavage was observed
